In test [1] the test system is whole knee joints of Has1KO mice with patellar groove cartilage injury. As to the kind of experiment: Whole joint gene expression (TAQMAN qPCR, RT2 Profiler NF-κB and Fibrosis arrays) after cartilage injury. The format is in vivo. The procedure:
(§1) Under approved IACUC protocols, a confined non-bleeding cartilage injury was created in the patellar groove of the right legs of 12-wk old male WT and Has1KO (C57Bl6) mice. Pirfenidone was provided in the chow (5 mg/g, Harlan) starting 3 days after surgery, and mice ingested about 600 mg pirfenidone/kg body weight daily. Joint tissue pathology was evaluated by photography of joint tissue surfaces after India Ink application (FIG. 1) and by histology of the intact joint with Safranin-O and Masson's Trichrome stained sections (FIG. 2.) For gene expression studies, skin and muscle was removed and whole knee joints were stored in RNALater. Inventoried TAQMAN® probes for Gapdh, Has2, Tnfaip6, Col1a1, Col3a1 and Vcan V2 were used to measure expression at 0, 7, 14, and 28 days post-injury, and Qiagen RT2 Profiler PCR Assay mouse arrays for NF-κB (PAMM-225ZA) and Fibrosis (PAMM-120ZA) pathways were used to assay whole joints at 21-28 days after injury, with and without pirfenidone treatment. Relative mRNA abundance was calculated as 1000×2−ΔCt, with ΔCt defined as Ct of the gene of interest minus Ct of Gapdh. Fold change was defined as abundance at a time point divided by abundance in the naïve condition for the same genotype.
(In general: Real-time PCR tracks product formation cycle by cycle.)

Another test has as its system injured Has1KO joints. Put plainly: Micro-computed Tomography of bone structure after cartilage injury. The format is in vivo, mice. The conditions noted are these: femur posterior to trochlear groove, day 28. From the text:
The effect of pirfenidone administration on bone structure was examined using Micro-computed Tomography (micro-CT) to identify bone differences (FIG. 7). The regions of interest examined included the trabecular bone in the femur directly posterior to the trochlear groove, where the defect was created (FIG. 8) and the cortical bone of the femoral midshaft (FIG. 9.) The trabecular bone parameters, obtained using micro-CT, indicate a recovery in injured Has1KO joints of bone-to-total volume, connectivity density, trabecular number, trabecular thickness, and trabecular separation to naive levels, surpassing even injured WT in bone recovery, and are shown in FIG. 10.

Test [2] concerns Has1KO mice with patellar groove cartilage injury. As to the kind of experiment: Joint tissue pathology by histology (Safranin-O, Masson's Trichrome) after cartilage injury. The format is in vivo. The procedure:
as §1
In the same way, the effects on expression of pro-inflammatory and pro-fibrotic genes were accompanied by profound effects on tissue pathology. A histologic examination of sagittal sections across the entire joint was done on 3 mice from each group.

Setting [3] is: 24 day drug treatment post injury.
[4] abbreviates: sagittal sections across entire joint, 3 mice per group.

With `Cc1ccc(=O)n(-c2ccccc2)c1` [pirfenidone, 5-methyl-1-phenylpyridin-2-one], in test [1] (setting [3]), the “activation of anti-apoptotic, anti-fibrotic and matrix remodeling genes (Sod2, Ccl12, Il13ra2, Serpine1, Timp1)” value is “enhanced”; the “expression of genes in the Nf-κB and Fibrosis pathways (arrays of 84 genes each)” value is given as “marked effect”. The “expression of genes linked to the aberrant wound healing responses” value in test [1] (pirfenidone in chow 5 mg/g (about 600 mg/kg daily) from 3 days after surgery, whole joint) was “normalized”. The “Has2 expression (delayed and more prolonged than in WT)” value in test [1] (pirfenidone in chow, whole joint) is listed as “normalized”. The “Tnfaip6 expression (enhanced at 2 weeks in Has1KO)” value in test [1] (pirfenidone in chow, whole joint, 2 weeks) is given as “normalized”. Besides, the “Vcan V2 expression (markedly inhibited in Has1KO)” value in test [1] (pirfenidone in chow, whole joint, 7 days) is “inhibition was corrected”. Also, the “trabecular bone parameters (bone-to-total volume, connectivity density, trabecular number, thickness, separation)” value in the test on injured Has1KO joints is “recovery”. Further, the “loss of cartilage and subchondral bone in the joint after cartilage injury” value in test [2] (Has1KO, 4 weeks post-injury, Safranin-O stained) is “reduces”. Further, in test [2] (setting [4]), the “Safranin-O staining in the cartilages (including growth plates)” value was “marked enhancement” and the “appearance of fibrotic tissues” value is reported as “blocked”.

Values taken from US20170266168A1, “METHODS FOR PREVENTING OR TREATING OSTEOARTHRITIS” (RUSH UNIVERSITY MEDICAL CENTER, priority 2014, published 2017).
